The values below come from patent US20240115745A1, “COMPOUNDS COMPRISING A FIBROBLAST ACTIVATION PROTEIN LIGAND AND USE THEREOF” (3B PHARMACEUTICALS GMBH, priority 2021, published 2024).

In experiment [1] the target is T1, FAP-expressing human WI-38 fibroblasts (Homo sapiens, UniProt Q12884).
T1 construct: FAP-expressing human WI-38 fibroblasts (ECACC) were cultured in EMEM; host or cells: WI-38 human fibroblasts
The experiment in a line: Competitive FACS binding assay.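 Note: flow cytometry read-out of median Cy5 fluorescence on the cells, plotted versus test compound concentration, with IC50 derived by four-parameter logistic curve fitting.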 A general note: Flow cytometry measures light scatter and fluorescence of single cells or particles in a stream.

The target of experiment [2] is T2, Recombinant human FAP (Homo sapiens, UniProt Q12884).
T2 construct: purchased R&D systems 3715-SE
T2 sequence (Q12884 26-760 limits assumed): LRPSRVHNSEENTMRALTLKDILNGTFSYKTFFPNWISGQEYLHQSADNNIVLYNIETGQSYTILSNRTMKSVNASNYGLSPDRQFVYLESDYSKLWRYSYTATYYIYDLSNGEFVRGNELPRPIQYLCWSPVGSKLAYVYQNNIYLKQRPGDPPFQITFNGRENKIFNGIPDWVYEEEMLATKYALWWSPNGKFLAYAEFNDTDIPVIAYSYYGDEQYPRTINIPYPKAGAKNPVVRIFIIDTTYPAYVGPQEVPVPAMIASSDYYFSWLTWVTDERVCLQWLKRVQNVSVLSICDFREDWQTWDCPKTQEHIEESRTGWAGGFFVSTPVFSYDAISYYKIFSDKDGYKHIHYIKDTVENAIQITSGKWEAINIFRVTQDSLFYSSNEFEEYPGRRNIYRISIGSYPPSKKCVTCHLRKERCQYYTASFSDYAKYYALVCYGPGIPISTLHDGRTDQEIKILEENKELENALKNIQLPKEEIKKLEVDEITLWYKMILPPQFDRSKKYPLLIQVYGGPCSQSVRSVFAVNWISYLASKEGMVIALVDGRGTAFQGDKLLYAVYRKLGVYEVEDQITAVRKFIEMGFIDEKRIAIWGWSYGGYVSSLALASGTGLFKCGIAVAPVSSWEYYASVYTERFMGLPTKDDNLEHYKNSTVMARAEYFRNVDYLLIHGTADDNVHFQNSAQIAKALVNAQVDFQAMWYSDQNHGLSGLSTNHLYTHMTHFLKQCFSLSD
The experiment in a line: FRET-based FAP protease activity assay. It is filed as biochemical.

[3] abbreviates: competition with 3 nM Cy5-labeled compound, WI-38 fibroblasts, 4° C., 1 hour, read-out: pIC50 Category (FACS) (converted).
Where [4] appears, read: recombinant human FAP, FRET-peptide substrate, 37° C., read-out: pIC50 Category (Activity) (converted).

Where two headings read alike, the source gives them in different places. *1 amine or outer side, *2 acyl side, *3 side chain or, on linkers, in order; H or OH if unused. Where a SMILES comes first, the peptide text is derived from it. Bridges are numbered along the chain shown (N, C = ends). [ ]: non-standard residue; d: D form. The star is where a group is joined. ξ: configuration not given here. X4 = O=C(O)CN1CCN(CC(=O)O)CCN(CC(=O)NCCCOCCOCCOCCCN*)CCN(CC(=O)O)CC1; X11 = O=C(O)CN1CCN(CC(=O)O)CCN([C@H](CCC(=O)*)C(=O)O)CC1; DOTA = O=C(O)CN1CCN(CC(=O)O)CCN(CC(=O)*)CCN(CC(=O)O)CC1; X2 = O=C1NC(=O)C([*:3])=C1CC[C@H](N[*:1])C(=O)[*:2]; Maleimide(3,4-diyl) = O=C1NC(=O)C([*:2])=C1[*:1]; X7 = CN1C(=O)C([*:1])=C([*:2])C1=O; ξThr(3R) = C[C@@H](O)C(N)C(=O)O; Suc = O=C(CCC(=O)[*:2])[*:1]; β3hK = NCCCC[C@H](N)CC(=O)O; Nle = CCCC[C@H](N)C(=O)O; Hexanoyl = CCCCCC(=O)*; CO = O=C([*:1])[*:2]; ξP = O=C(O)C1CCCN1; NHBu = CCCCN*

T1 sequence (Q12884 whole entry): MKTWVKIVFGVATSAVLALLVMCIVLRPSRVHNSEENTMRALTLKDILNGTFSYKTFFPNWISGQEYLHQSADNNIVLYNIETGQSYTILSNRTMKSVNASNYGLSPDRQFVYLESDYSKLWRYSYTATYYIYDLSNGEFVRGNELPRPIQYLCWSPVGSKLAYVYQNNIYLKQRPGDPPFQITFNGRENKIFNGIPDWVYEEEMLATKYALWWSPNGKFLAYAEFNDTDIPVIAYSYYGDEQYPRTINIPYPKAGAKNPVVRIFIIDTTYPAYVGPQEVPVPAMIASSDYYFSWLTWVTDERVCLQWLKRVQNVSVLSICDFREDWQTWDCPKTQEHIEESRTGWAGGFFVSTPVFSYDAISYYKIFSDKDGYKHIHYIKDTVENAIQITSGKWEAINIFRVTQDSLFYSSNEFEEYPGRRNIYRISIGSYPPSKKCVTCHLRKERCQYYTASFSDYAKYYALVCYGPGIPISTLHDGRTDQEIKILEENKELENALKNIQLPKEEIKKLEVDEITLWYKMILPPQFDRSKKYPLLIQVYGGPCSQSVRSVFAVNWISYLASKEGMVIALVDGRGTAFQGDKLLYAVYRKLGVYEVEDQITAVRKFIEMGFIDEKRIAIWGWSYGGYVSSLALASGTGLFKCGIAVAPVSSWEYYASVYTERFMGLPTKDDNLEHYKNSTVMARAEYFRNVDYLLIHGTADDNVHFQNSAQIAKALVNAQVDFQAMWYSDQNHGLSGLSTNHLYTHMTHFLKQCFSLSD

With `CCCCNC(=O)N[C@H]1CSSC[C@@H](C(=O)N[C@@H](CCCCNC(=O)CN2CCN(CC(=O)O)CCN(CC(=O)O)CCN(CC(=O)O)CC2)CC(=O)O)NC(=O)[C@H](Cc2ccccc2)NC(=O)[C@H](CCC(=O)O)NC(=O)[C@H]([C@@H](C)O)NC(=O)[C@@H]2CCCN2C(=O)[C@@H]2CCCN2C1=O` [Compound 1014, Buur-[Cys-Pro-Pro-Thr-Glu-Phe-Cys]-Bhk(DOTA)-OH] ({NHBu-CO}-CPPTEFC[β3hK](DOTA)-OH; disulfide 1-7), the IC50 in experiment [1] (setting [3]) and in experiment [2] (setting [4]) was under 100 nM each time.

As to `CCCC[C@H](NC(=O)CCC(=O)NCCCOCCOCCOCCCNC(=O)CN1CCN(CC(=O)O)CCN(CC(=O)O)CCN(CC(=O)O)CC1)C(=O)N[C@H]1CSSC[C@@H](C(=O)N[C@@H](CC(=O)O)C(N)=O)NC(=O)[C@H](Cc2ccccc2)NC(=O)[C@H](CCC(N)=O)NC(=O)[C@H]([C@@H](C)O)NC(=O)[C@@H]2CCCN2C(=O)[C@@H]2CCCN2C1=O` [Compound 1008, DOTA-Ttds-Nle-[Cys-Pro-Pro-Thr-Gln-Phe-Cys]-Asp-NH2] ({X4-Suc}-[Nle]CPPTQFCD-NH2; disulfide 2-8), the IC50 in experiment [1] (setting [3]) and in experiment [2] (setting [4]) was under 100 nM each time.

Consider `CCCCCC(=O)N[C@H]1CSSC[C@@H](C(=O)N[C@@H](CCCCNC(=O)CN2CCN(CC(=O)O)CCN(CC(=O)O)CCN(CC(=O)O)CC2)CC(=O)O)NC(=O)[C@H](Cc2ccccc2)NC(=O)[C@H](CCC(N)=O)NC(=O)[C@H]([C@@H](C)O)NC(=O)[C@@H]2CCCN2C(=O)[C@@H]2CCCN2C1=O` [Compound 1011, Hex-[Cys-Pro-Pro-Thr-Gln-Phe-Cys]-Bhk(DOTA)-OH], for which the IC50 in experiment [1] (setting [3]) and in experiment [2] (setting [4]) was under 100 nM throughout.

For the molecule `CCCCCC(=O)N[C@H]1CSC2=C(SC[C@@H](C(=O)N[C@@H](CC(=O)O)C(N)=O)NC(=O)[C@H](Cc3ccccc3)NC(=O)[C@H](CCC(N)=O)NC(=O)[C@H]([C@@H](C)O)NC(=O)[C@@H]3CCCN3C(=O)[C@@H]3CCCN3C1=O)C(=O)N(CCCOCCOCCOCCCNC(=O)C(CNCCN)CNCCN)C2=O` [Compound 2026, Hex-[Cys(mli(N4Ac-Ttd))-Pro-Pro-Thr-Gln-Phe-Cys]-Asp-NH2] (HELM PEPTIDE1{[CCCCCC(=O)[*:2]].C.P.P.T.Q.F.C.D.[am]}|CHEM1{[NCCNCC(CNCCN)C(=O)NCCCOCCOCCOCCCN1C(=O)C([*:1])=C([*:2])C1=O]}$PEPTIDE1,CHEM1,2:R3-1:R1|PEPTIDE1,CHEM1,8:R3-1:R2$$$V2.0), the IC50 in experiment [1] and in experiment [2] was under 100 nM throughout.

Turning to `CCCCCC(=O)N[C@H]1CSSC[C@@H](C(=O)N[C@@H](CC(=O)O)C(=O)N[C@@H](CCCCNC(=O)CN2CCN(CC(=O)O)CCN(CC(=O)O)CCN(CC(=O)O)CC2)C(N)=O)NC(=O)[C@H](Cc2ccccc2)NC(=O)[C@H](CCC(N)=O)NC(=O)[C@H]([C@@H](C)O)NC(=O)[C@@H]2CCCN2C(=O)[C@@H]2CCCN2C1=O` [Compound 1016, Hex-[Cys-Pro-Pro-Thr-Gln-Phe-Cys]-Asp-Lys(DOTA)-NH2] (Hexanoyl-CPPTQFCDK(DOTA)-NH2; disulfide 1-7), the IC50 in experiment [1] (setting [3]) and in experiment [2] (setting [4]) was under 100 nM each time.

Turning to `CCCCCC(=O)N[C@H]1CSSC[C@@H](C(=O)N[C@@H](CC(=O)O)C(=O)N[C@@H](CCCCNC(=O)CN2CCN(CC(=O)O)CCN(CC(=O)O)CCN(CC(=O)O)CC2)C(N)=O)NC(=O)[C@H](Cc2ccccc2)NC(=O)[C@H](CCC(=O)O)NC(=O)[C@H]([C@@H](C)O)NC(=O)[C@@H]2CCCN2C(=O)[C@@H]2CCCN2C1=O` [Compound 1013, Hex-[Cys-Pro-Pro-Thr-Glu-Phe-Cys]-Asp-Lys(DOTA)-NH2] (Hexanoyl-CPPTEFCDK(DOTA)-NH2; disulfide 1-7), the IC50 in experiment [1] (setting [3]) and in experiment [2] (setting [4]) was under 100 nM in each case.

As to `CCCC[C@H](NC(=O)CCC(=O)NCCCOCCOCCOCCCNC(=O)CN1CCN(CC(=O)O)CCN(CC(=O)O)CCN(CC(=O)O)CC1)C(=O)N[C@H]1CSSC[C@@H](C(=O)NCCC(=O)O)NC(=O)[C@H](Cc2ccccc2)NC(=O)[C@H](CCC(N)=O)NC(=O)[C@H]([C@@H](C)O)NC(=O)[C@@H]2CCCN2C(=O)[C@@H]2CCCN2C1=O` [Compound 1010, DOTA-Ttds-Nle-[Cys-Pro-Pro-Thr-Gln-Phe-Cys]-Bal-OH], the IC50 in experiment [1] (setting [3]) and in experiment [2] (setting [4]) was under 100 nM throughout.

As to `CCCCCC(=O)N[C@H]1CSC2=C(CC[C@@H](C(=O)N[C@@H](CC(=O)O)C(=O)N[C@@H](CCCCNC(=O)CC[C@H](C(=O)O)N3CCN(CC(=O)O)CCN(CC(=O)O)CC3)C(N)=O)NC(=O)[C@H](Cc3ccccc3)NC(=O)[C@H](CCC(N)=O)NC(=O)[C@H]([C@@H](C)O)NC(=O)[C@@H]3CCCN3C(=O)[C@@H]3CCCN3C1=O)C(=O)NC2=O` [Compound 2023, Hex-[Cys(mli)-Pro-Pro-Thr-Gln-Phe-Cys]-Asp-Lys(NODAGA)-NH2] (Hexanoyl-CPPTQF[X2]DK(X11)-NH2; thioether 1-7), the IC50 in experiment [1] (setting [3]) and in experiment [2] (setting [4]) was under 100 nM each time.

`CCCCCC(=O)N[C@H]1CSC2=C(SC[C@@H](C(=O)N[C@@H](CC(=O)O)C(=O)N[C@@H](CCCCNC(=O)CN3CCN(CC(=O)O)CCN(CC(=O)O)CCN(CC(=O)O)CC3)C(N)=O)NC(=O)[C@H](Cc3ccccc3)NC(=O)[C@H](CCC(N)=O)NC(=O)[C@H]([C@@H](C)O)NC(=O)[C@@H]3CCCN3C(=O)C3CCCN3C1=O)C(=O)NC2=O` (stereo partly drawn) [Compound 2012, Hex-[Cys(mli)-Pro-Pro-Thr-Gln-Phe-Cys]-Asp-Lys(DOTA)-NH2] (Hexanoyl-C[ξP]PTQFCDK(DOTA)-NH2; linker 1-7 via Maleimide(3,4-diyl)): the IC50 in experiment [1] (setting [3]) and in experiment [2] (setting [4]) was under 100 nM each time.

For `CCCC[C@H](NC(=O)CCC(=O)NCCCOCCOCCOCCCNC(=O)CN1CCN(CC(=O)O)CCN(CC(=O)O)CCN(CC(=O)O)CC1)C(=O)N[C@H]1CSSC[C@@H](C(=O)O)NC(=O)[C@H](Cc2ccccc2)NC(=O)[C@H](CCC(N)=O)NC(=O)[C@H]([C@@H](C)O)NC(=O)[C@@H]2CCCN2C(=O)[C@@H]2CCCN2C1=O` [Compound 1009, DOTA-Ttds-Nle-[Cys-Pro-Pro-Thr-Gln-Phe-Cys]-OH], the IC50 in experiment [1] (setting [3]) and in experiment [2] (setting [4]) was under 100 nM each time.

Take `CCCCCC(=O)N[C@H]1CSSC[C@@H](C(=O)N[C@@H](CC(=O)O)C(=O)N[C@@H](Cc2c[nH]cn2)C(=O)N[C@@H](Cc2ccccc2)C(=O)N[C@@H](CCCNC(=N)N)C(=O)N[C@@H](CC(=O)O)C(N)=O)NC(=O)[C@H](Cc2ccccc2)NC(=O)[C@H](CCC(=O)O)NC(=O)[C@H]([C@@H](C)O)NC(=O)[C@@H]2CCCN2C(=O)[C@@H]2CCCN2C1=O` [Compound 1002, Hex-[Cys-Pro-Pro-Thr-Glu-Phe-Cys]-Asp-His-Phe-Arg-Asp-NH2] (HELM PEPTIDE1{[CCCCCC(=O)[*:2]].C.P.P.T.E.F.C.D.H.F.R.D.[am]}$PEPTIDE1,PEPTIDE1,2:R3-8:R3$$$V2.0): the IC50 in experiment [1] (setting [3]) and in experiment [2] (setting [4]) was under 100 nM each time.

Turning to `CCCCNC(=O)N[C@H]1CSC2=C(SC[C@@H](C(=O)N[C@@H](CC(=O)O)C(=O)N[C@@H](CCCCNC(=O)CN3CCN(CC(=O)O)CCN(CC(=O)O)CCN(CC(=O)O)CC3)C(N)=O)NC(=O)[C@H](Cc3ccccc3)NC(=O)[C@H](CCC(N)=O)NC(=O)C([C@@H](C)O)NC(=O)[C@@H]3CCCN3C(=O)[C@@H]3CCCN3C1=O)C(=O)N(C)C2=O` (stereo partly drawn) [Compound 2015, Hex-[Cys(mli(Me))-Pro-Pro-Thr-Gln-Phe-Cys]-Asp-Lys(DOTA)-NH2] ({NHBu-CO}-CPP[ξThr(3R)]QFCDK(DOTA)-NH2; linker 1-7 via X7), the IC50 in experiment [1] (setting [3]) and in experiment [2] (setting [4]) was under 100 nM in each case.

As for `CCCCNC(=O)N[C@H]1CSC2=C(SC[C@@H](C(=O)N[C@@H](CC(=O)O)C(=O)N[C@@H](CCCCNC(=O)CN3CCN(CC(=O)O)CCN(CC(=O)O)CCN(CC(=O)O)CC3)C(N)=O)NC(=O)[C@H](Cc3ccccc3)NC(=O)[C@H](CCC(N)=O)NC(=O)C([C@@H](C)O)NC(=O)[C@@H]3CCCN3C(=O)[C@@H]3CCCN3C1=O)C(=O)NC2=O` (stereo partly drawn) [Compound 2014, Buur-[Cys(mli)-Pro-Pro-Thr-Gln-Phe-Cys]-Asp-Lys(DOTA)-NH2] ({NHBu-CO}-CPP[ξThr(3R)]QFCDK(DOTA)-NH2; linker 1-7 via Maleimide(3,4-diyl)), the IC50 in experiment [1] (setting [3]) and in experiment [2] (setting [4]) was under 100 nM throughout.

For `CCCCCC(=O)N[C@H]1CSC2=C(SC[C@@H](C(=O)N[C@@H](CC(=O)O)C(N)=O)NC(=O)[C@H](Cc3ccccc3)NC(=O)[C@H](CCC(N)=O)NC(=O)[C@H]([C@@H](C)O)NC(=O)[C@@H]3CCCN3C(=O)[C@@H]3CCCN3C1=O)C(=O)NC2=O` [Compound 2001, Hex-[Cys(mli)-Pro-Pro-Thr-Gln-Phe-Cys]-Asp-NH2] (HELM PEPTIDE1{[CCCCCC(=O)[*:2]].C.P.P.T.Q.F.C.D.[am]}|CHEM1{[O=C1NC(=O)C([*:2])=C1[*:1]]}$PEPTIDE1,CHEM1,2:R3-1:R1|PEPTIDE1,CHEM1,8:R3-1:R2$$$V2.0), the IC50 in experiment [1] (setting [3]) and in experiment [2] (setting [4]) was under 100 nM throughout.

`CCCC[C@H](NC(=O)CCC(=O)NCCCOCCOCCOCCCNC(=O)C(CNCCN)CNCCN)C(=O)N[C@H]1CSC2=C(SC[C@@H](C(=O)NCCC(=O)O)NC(=O)[C@H](Cc3ccccc3)NC(=O)[C@H](CCC(N)=O)NC(=O)[C@H]([C@@H](C)O)NC(=O)[C@@H]3CCCN3C(=O)[C@@H]3CCCN3C1=O)C(=O)NC2=O` [Compound 2022, N4Ac-Ttds-Nle-[Cys(mli)-Pro-Pro-Thr-Gln-Phe-Cys]-Bal-OH]: the IC50 in experiment [1] (setting [3]) and in experiment [2] (setting [4]) was under 100 nM in each case.
